Test results: patent publication US20230301885A1, “NOVEL USE” (DSM IP ASSETS B.V., priority 2020, published 2023)

Legend:
S. epidermidis [1] = test: Microbiome balance model, S. epidermidis/S. aureus co-culture: S. epidermidis; type: cell-based, Staphylococcus epidermidis; conditions: co-culture with S. aureus
Protocol: (§1) The term ‘share’ as used herein refers to the share of each (individual) microbe, based on the total number of microbes in the respective group of microbes in % (i.e. the at least two, preferably all dry or sebaceous skin microbes as defined herein, respectively S. epidermidis and ), either before or after inoculation (as indicated). The share is calculated using the colony count of the respective (individual) microbe divided by the sum of the colony counts of all microbes of the respective microbiota * 100%.
(§2) 5 mL of TSB (Tryptic Say Broth) to which no (Ref.1) or 500 µL of 2 wt.-% of 1,3-propanediol (1,3-PDO) in PBS (Phosphate-buffered saline) have been added. Then this solutions have been inoculated by 500 µL of the respective calibrated mixture of the microbes as outlined below. Directly after inoculation and/or after 4 hours of incubation at 37° C., 100 µL have been taken and plated on an Agar gel petri dish. The microbes have then been counted based on the colony specific morphology and/or size.
(§3) All shares have been rounded.

S. aureus [2] = test: Microbiome balance model, S. epidermidis/S. aureus co-culture: S. aureus; type: cell-based, Staphylococcus aureus; conditions: co-culture with S. epidermidis
Protocol: as §1, §2, §3

C. acnes = test: Microbiome balance model, sebaceous skin mixture: C. acnes; type: cell-based, Cutibacterium acnes; conditions: 4 h at 37° C.
Protocol: (§4) Thus, in particular the term ‘by not unproportionally affecting the growth of anyone thereof’ refers to a balancing of at least two, preferably all dry skin or sebaceous skin microbes as defined herein in the mutual presence thereof, wherein only small changes in the difference in the (individual) shares of the microbes compared to the corresponding shares of the control are observed. Preferably, the small changes in the (individual) share (after 4 h of incubation at 37° C.) is less than ±15%, in particular less than ±10%, most in particular less than ±7.5%, compared to the control. Said change in the share is calculated as: share of the respective microbe within the group of at least two, preferably all microbes of dry or sebaceous skin in the presence of 1,3-PDO [%] minus share of the same microbe within the same group of microbes in the absence of 1,3-PDO [%], both after 4 h of incubation at 37° C. as illustrated in the example.
(§5) The ‘not unproportionally affected growth’ can also be assessed by determining an overall impact value, by • (1) assessing the impact of the ingredient on the individual microbe (i) and assigning an individual impact value x′(i) to said microbe as outlined below: • [formula] • If x(i) is • a) ≤ 0.1 then an integer x′(i) of 1 is assigned (no impact) • b) >0.1 ≤ 0.5then an integer x′(i) of 2 is assigned (slight impact) • c) > 0.5 then an integer x′(i) of 3 is assigned (significant impact), followed by • (2) assessing the overall effect of the ingredient on the respective microbiome by calculating the overall impact value y with formula (II) • [formula] • with n being the total number of microbes in the respective microbiota, wherein a good balancing is characterized by an overall impact value y of less than 2, preferably less than 1.75, most preferably less than 1.7.
as §2, §3

S. epidermidis [3] = test: Microbiome balance model, sebaceous skin mixture: S. epidermidis; type: cell-based, Staphylococcus epidermidis
Protocol: as §4, §5, §2, §3

S. hominis = test: Microbiome balance model, sebaceous skin mixture: S. hominis; type: cell-based, Staphylococcus hominis
Protocol: as §4, §5, §2, §3

S. capitis = test: Microbiome balance model, sebaceous skin mixture: S. capitis; type: cell-based, Staphylococcus capitis; conditions: 4 h at 37° C.
Protocol: as §4, §5, §2, §3

S. mitis [4] = test: Microbiome balance model, sebaceous skin mixture: S. mitis; type: cell-based, Streptococcus mitis; conditions: 4 h at 37° C.
Protocol: as §4, §5, §2, §3

C.simulans = test: Microbiome balance model, sebaceous skin mixture: C. simulans; type: cell-based, Corynebacterium simulans; conditions: 4 h at 37° C.
Protocol: as §4, §5, §2, §3

M. globosa [5] = test: Microbiome balance model, sebaceous skin mixture: M. globosa; type: cell-based, Malassezia globosa; conditions: 4 h at 37° C.
Protocol: as §4, §5, §2, §3

[6] = test system: microbes of sebaceous skin; test: Microbiome balance model, sebaceous skin mixture: total of all microbes; type: cell-based; conditions: 4 h at 37° C.
Protocol: (§6) Preferably, the difference in total number of said at least two, preferably all microbes, compared to the respective total number in the absence of 1,3-propanediol (i.e. the control), after 4 h of incubation at 37° C., is within a range of ±50%, preferably ±40%, more preferably ±15%, most preferably ±10%.
as §5, §2, §3

C. tuberculostearicum = test: Microbiome balance model, dry skin mixture: C. tuberculostearicum; type: cell-based, Corynebacterium tuberculostearicum; conditions: 4 h at 37° C.
Protocol: as §4, §5, §2, §3

P. acnes = test: Microbiome balance model, dry skin mixture: P. acnes; type: cell-based, Cutibacterium acnes; conditions: 4 h at 37° C.
Protocol: as §4, §5, §2, §3

S. mitis [7] = test: Microbiome balance model, dry skin mixture: S. mitis; type: cell-based, Streptococcus mitis; conditions: 4 h at 37° C.
Protocol: as §4, §5, §2, §3

S. oralis = test: Microbiome balance model, dry skin mixture: S. oralis; type: cell-based, Streptococcus oralis; conditions: 4 h at 37° C.
Protocol: as §4, §5, §2, §3

M. luteus = test: Microbiome balance model, dry skin mixture: M. luteus; type: cell-based, Micrococcus luteus; conditions: 4 h at 37° C.
Protocol: as §4, §5, §2, §3

M. globosa [8] = test: Microbiome balance model, dry skin mixture: M. globosa; type: cell-based, Malassezia globosa; conditions: 4 h at 37° C.
Protocol: as §4, §5, §2, §3

microbes of dry skin = test: Microbiome balance model, dry skin mixture: total of all microbes; type: cell-based; conditions: 4 h at 37° C.
Protocol: as §6, §5, §2, §3

S. aureus [9] = conditions: known; cited from earlier work
E. coli = conditions: known; cited from earlier work
[10] = after 4 hours of incubation at 37° C.
[11] = directly after inoculation, 500 µL of 2 wt.-% in PBS in 5 mL TSB

1,3-Propanediol [1,3-PDO]
CSE4h counts of colony of S. epidermidis (S. epidermidis [1]; [10]): 170 CFU/ml
CSE4h share of S. epidermidis (S. epidermidis [1]; [10]): 77%
CSE0 share of S. epidermidis (S. epidermidis [1]; directly after inoculation): 89%
CSE0 counts of colony of S. epidermidis (S. epidermidis [1]; [11]): 235 CFU/ml
share of S. epidermidis, effect in words (S. epidermidis [1]; t = 0 vs t = 4 h): significantly altered
CSA4h counts of colony of S. aureus (S. aureus [2]; [10]): 50 CFU/ml
CSA4h share of S. aureus (S. aureus [2]; [10]): 23%
CSA0 share of S. aureus (S. aureus [2]; directly after inoculation): 11%
CSA0 counts of colony of S. aureus (S. aureus [2]; [11]): 30 CFU/ml
C. acnes change in share vs control (C. acnes): +1%^1
C. acnes counts of colony (C. acnes): 2664 CFU/ml
C. acnes share (C. acnes): 25%
C. acnes valuation, impact value x(i)′ (C. acnes): 1^3 (≤ 0.1 then an integer x′(i) of 1 is assigned (no impact))
growth of S. epidermidis compared to the control, in words (S. epidermidis [3]): increased
S. epidermidis change in share vs control (S. epidermidis [3]; 4 h at 37° C.): +5%^1
S. epidermidis counts of colony (S. epidermidis [3]; 4 h at 37° C.): 2255 CFU/ml
S. epidermidis share (S. epidermidis [3]; 4 h at 37° C.): 21%
S. epidermidis valuation, impact value x(i)′ (S. epidermidis [3]; 4 h at 37° C.): 2^3 (>0.1 ≤ 0.5then an integer x′(i) of 2 is assigned (slight impact))
growth of S. hominis compared to the control, in words (S. hominis): increased
S. hominis counts of colony (S. hominis; 4 h at 37° C.): 373 CFU/ml
S. hominis share (S. hominis; 4 h at 37° C.): 3%
S. hominis valuation, impact value x(i)′ (S. hominis; 4 h at 37° C.): 1^3 (≤ 0.1 then an integer x′(i) of 1 is assigned (no impact))
S. capitis counts of colony (S. capitis): 664 CFU/ml
S. capitis share (S. capitis): 6%
S. capitis valuation, impact value x(i)′ (S. capitis): 2^3 (>0.1 ≤ 0.5then an integer x′(i) of 2 is assigned (slight impact))
S. mitis change in share vs control (S. mitis [4]): -2%^1
S. mitis counts of colony (S. mitis [4]): 1300 CFU/ml
S. mitis share (S. mitis [4]): 12%
S. mitis valuation, impact value x(i)′ (S. mitis [4]): 2^3 (>0.1 ≤ 0.5then an integer x′(i) of 2 is assigned (slight impact))
C.simulans counts of colony (C.simulans): 627 CFU/ml
C.simulans share (C.simulans): 6%
C.simulans valuation, impact value x(i)′ (C.simulans): 1^3 (≤ 0.1 then an integer x′(i) of 1 is assigned (no impact))
M. globosa change in share vs control (M. globosa [5]): -4%^1
M. globosa counts of colony (M. globosa [5]): 2900 CFU/ml
M. globosa share (M. globosa [5]): 27%
M. globosa valuation, impact value x(i)′ (M. globosa [5]): 2^3 (>0.1 ≤ 0.5then an integer x′(i) of 2 is assigned (slight impact))
Change of total CFU/ml vs control [6]: -7%^2
Total counts of colony [6]: 10783 CFU/ml
Total share [6]: 100%
overall impact value y [6]: 1.6^4
C. tuberculostearicum change in share vs control (C. tuberculostearicum): -1%^1
C. tuberculostearicum counts of colony (C. tuberculostearicum): 909 CFU/ml
C. tuberculostearicum share (C. tuberculostearicum): 4%
C. tuberculostearicum valuation, impact value x(i)′ (C. tuberculostearicum): 1^3 (≤ 0.1 then an integer x′(i) of 1 is assigned (no impact))
P. acnes change in share vs control (P. acnes): -4%^1
P. acnes counts of colony (P. acnes): 3200 CFU/ml
P. acnes share (P. acnes): 15%
P. acnes valuation, impact value x(i)′ (P. acnes): 1^3 (≤ 0.1 then an integer x′(i) of 1 is assigned (no impact))
S. mitis change in share vs control (S. mitis [7]): +6%^1
S. mitis counts of colony (S. mitis [7]): 6600 CFU/ml
S. mitis share (S. mitis [7]): 31%
S. mitis valuation, impact value x(i)′ (S. mitis [7]): 3^3 (> 0.5 then an integer x′(i) of 3 is assigned (significant impact))
S. oralis change in share vs control (S. oralis): +5%^1
S. oralis counts of colony (S. oralis): 5700 CFU/ml
S. oralis share (S. oralis): 27%
S. oralis valuation, impact value x(i)′ (S. oralis): 3^3 (> 0.5 then an integer x′(i) of 3 is assigned (significant impact))
M. luteus change in share vs control (M. luteus): -1%^1
M. luteus counts of colony (M. luteus): 873 CFU/ml
M. luteus share (M. luteus): 4%
M. luteus valuation, impact value x(i)′ (M. luteus): 1^3 (≤ 0.1 then an integer x′(i) of 1 is assigned (no impact))
M. globosa change in share vs control (M. globosa [8]): -6%^1
M. globosa counts of colony (M. globosa [8]): 3800 CFU/ml
M. globosa share (M. globosa [8]): 18%
M. globosa valuation, impact value x(i)′ (M. globosa [8]): 1^3 (≤ 0.1 then an integer x′(i) of 1 is assigned (no impact))
Change of total CFU/ml vs control (microbes of dry skin): +38%^2
Total counts of colony (microbes of dry skin): 21082 CFU/ml
overall impact value (microbes of dry skin): 1.7^4
antimicrobial effect on S. aureus (S. aureus [9]): antimicrobial effect
antimicrobial effect on E. coli (E. coli): antimicrobial effect
